Tests used:
[1] = test system: BALBC/J neonates epicutaneously sensitized with house dust mite (HDM); experiment: Neonatal topical treatment in the epicutaneous HDM atopic dermatitis model: skin inflammatory score, TEWL, skin histology; format: in vivo, mouse
Method: A) Skin inflammatory scoring (0—Normal; 1—Mild inflammation, 2—Moderate inflammation; 3—Marked inflammation; 4—Severe inflammation; 5—Very severe inflammation) was performed (blinded for the experimental conditions) on 8-10 representative images of haematoxylin and eosin stained paraffin embedded skin tissue sections (4 μM).
B) Transepidermal water loss (TEWL) measurement was performed 24 hours after the end of the third epicutaneous HDM sensitization round. Three measurements were taken per mouse. n=5 mice per group.
Skin tissue from the sensitized area was fixed in formalin, embedded in paraffin and 4 μM tissue sections were stained with haematoxylin and eosin. Representative images from vehicle treated controls (left) or sodium propionate treated mice (right) are shown at a 10× magnification. Inserts are shown at a 20× magnification.
First generation BALBC/J (Charles River) neonates were topically treated on dorsal skin with 5 mg sodium propionate (50 μl of a 100 mg/ml Sodium propionate solution; Sodium propionate (Sigma Aldrich; catalogue number P5436) was dissolved in 0.9% NaCl and sterile filtered) or vehicle control (0.9% NaCl; Laboratorium G. Bichsel AG; catalogue number 1000096) on day 4 and 6 after birth. Ten days post birth epicutaneous sensitization with 15 μg house dust mite (HDM) (Greer Laboratories Inc.; catalogue number B84) was started. Epicutaneous sensitization was performed by application of gauze (Dermaplast; catalogue number 214 010) soaked in 15 μg HDM on the dorsal skin of the neonate, which was secured by a bioclusive dressing (Systagenix; catalogue number 2463) and covered with adhesive tape (Mölnlycke Health Care; catalogue number 310500) to prevent removal of the gauze and consequently HDM ingestion. The sensitization was performed for three consecutive weeks, each week consisting of five consecutive days of sensitization, with a change of the gauze on day 3 and removal of the gauze on day 5, followed by a 2 day recovery period. […]

[2] = test system: BALBC/J neonates sensitized and intranasally challenged with house dust mite (HDM); experiment: Lung analysis after intranasal HDM challenge in the same model: BAL cell counts, PAS mucus staining; format: in vivo, mouse; conditions: topical 5 mg sodium propionate vs vehicle, n=5 mice per group
Method: A) Airway eosinophil counts and B) airway neutrophils counts were determined in cytospins from bronchoalveolar lavage fluid collected at 72 hours after the last intranasal challenge.
C) Mucus production in the lung was quantified as the frequency of fully periodic acid-Schiff (PAS) stained cells in representative images of small and medium airways from PAS stained paraffin embedded lung tissue sections (4 μM). n=5 mice per group.
First generation BALBC/J (Charles River) neonates were topically treated on dorsal skin with 5 mg sodium propionate (50 μl of a 100 mg/ml Sodium propionate solution; Sodium propionate (Sigma Aldrich; catalogue number P5436) was dissolved in 0.9% NaCl and sterile filtered) or vehicle control (0.9% NaCl; Laboratorium G. Bichsel AG; catalogue number 1000096) on day 4 and 6 after birth. Ten days post birth epicutaneous sensitization with 15 μg house dust mite (HDM) (Greer Laboratories Inc.; catalogue number B84) was started. […]
Mouse tracheas were canulated and bronchoalveolar lavage (BAL) was performed with 500 μl PBS 0.2% BSA solution. Total BAL cell counts were determined using a Coulter Counter, and differential cell counts were determined on cytospin preparations of the BAL fluid. […]

[3] = test system: Nickel allergen contact hypersensitivity; experiment: Contact hypersensitivity to Nickel allergen, topical propionate solution, clinical score of skin lesion; format: in vivo, human; conditions: topical propionate solution subsequent to exposure to Nickel; worded as 'can be'
Excerpt: In this regard, human volunteers can be topically administered a propionate solution subsequent to exposure to a known allergen (e. g. Nickel); see Example 2. Symptoms of dermatitis and/or eczema can be observed, i.e. an allergic reaction. […] Accordingly, the compositions and methods of the invention as described herein in the various embodiments or aspects are, inter alia, effective following contact hypersensitivity to nickel. In addition, compositions and methods of the invention are effective in improving skin repair following an abrasion. Overall, treatment of skin with a solution containing propionate is effective at dampening skin diseases such as dermatitis and/or eczema and reducing redness of the skin, skin lesions, wrinkles, impurities and/or irregularities of the skin by improving the barrier function of the skin. […] The composition of the invention as described herein in the various embodiments or aspects can, inter alia, be applied topically and is relevant for the healthcare and cosmetics industry.
Allergic hypersensitivity can be induced through contact sensitization with Nickel allergen over a 12 hour time period. […] Clinical score of skin lesion can be determined by using protocols known in the art.

CCC(=O)[O-].[Na+] [propionate, Sodium propionate]
protects against: allergic dermatitis skin inflammation ([1]; topical 5 mg sodium propionate vs vehicle (0.9% NaCl), skin inflammatory scoring 0-5 on H&E skin sections, n=5 mice per group) | epidermal thickening ([1]; topical 5 mg sodium propionate vs vehicle, H&E stained skin sections from sensitized area) | disruption of skin barrier (transepidermal water loss, TEWL) ([1]; topical 5 mg sodium propionate vs vehicle, TEWL 24 hours after end of third epicutaneous HDM sensitization round, n=5 mice per group) | allergic airway inflammation (airway eosinophil and neutrophil counts) ([2]; BAL fluid cytospins 72 hours after last intranasal challenge) | mucus production in the lung (frequency of PAS stained cells) ([2]; PAS stained lung sections, small and medium airways)
significantly reduced: clinical score (symptoms of dermatitis and/or eczema) [3]

Reference: patent publication US20190160030A1, “CARBOXYLIC ACIDS FOR EARLY CHILDHOOD APPLICATION” (PROPONENT BIOTECH GMBH, priority 2016, published 2019)
